Among the data in ChEMBL document CHEMBL4359843, “Linear and Rationally Designed Stapled Peptides Abrogate TLR4 Pathway and Relieve Inflammatory Symptoms in Rheumatoid Arthritis Rat Model” (J Med Chem, 2019) are Activity values, retold here.

The source made the active and inactive calls. The rule behind the calls is not given here.

Holding throughout (type): cell-based
In assay [1] the target is T1, Toll-like receptor 4 (Mus musculus) (UniProt Q9QUK6).
T1 sequence (whole entry): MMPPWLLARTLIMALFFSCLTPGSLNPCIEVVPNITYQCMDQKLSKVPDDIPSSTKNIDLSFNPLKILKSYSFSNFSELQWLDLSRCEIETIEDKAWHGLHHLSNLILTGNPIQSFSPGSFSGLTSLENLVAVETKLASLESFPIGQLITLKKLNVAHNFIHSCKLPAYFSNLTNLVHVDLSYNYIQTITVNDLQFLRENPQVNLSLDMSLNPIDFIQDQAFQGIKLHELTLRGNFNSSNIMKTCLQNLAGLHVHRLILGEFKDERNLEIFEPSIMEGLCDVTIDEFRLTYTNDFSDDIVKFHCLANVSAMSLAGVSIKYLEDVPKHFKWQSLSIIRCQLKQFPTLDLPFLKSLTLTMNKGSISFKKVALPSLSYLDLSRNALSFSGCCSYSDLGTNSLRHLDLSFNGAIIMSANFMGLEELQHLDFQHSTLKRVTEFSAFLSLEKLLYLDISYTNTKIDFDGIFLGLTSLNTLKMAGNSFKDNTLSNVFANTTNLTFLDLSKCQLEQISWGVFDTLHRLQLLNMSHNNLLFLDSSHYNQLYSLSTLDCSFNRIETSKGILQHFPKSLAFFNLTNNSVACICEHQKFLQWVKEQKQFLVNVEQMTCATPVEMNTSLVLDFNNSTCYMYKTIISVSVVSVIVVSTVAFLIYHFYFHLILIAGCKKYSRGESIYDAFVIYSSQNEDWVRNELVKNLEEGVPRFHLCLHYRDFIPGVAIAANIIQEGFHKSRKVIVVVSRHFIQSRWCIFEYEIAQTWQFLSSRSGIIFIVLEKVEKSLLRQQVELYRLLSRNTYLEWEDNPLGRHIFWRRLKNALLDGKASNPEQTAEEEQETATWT
As to the kind of experiment: Antagonist activity at TLR4 in mouse RAW264.7 cells assessed as reduction in LPS-induced NFkappaB p65 phosphorylation at 80 uM after 15 to 30 mins by Western blot analysis.

For assay [2], the target named is T1, Toll-like receptor 4 (Mus musculus). The assay is described as follows: Antagonist activity at TLR4 in mouse RAW264.7 cells assessed as reduction in LPS-induced JNK phosphorylation at 80 uM after 15 to 30 mins by Western blot analysis. Background: In western blotting, separated proteins are transferred to a membrane and probed.
The target of another assay is TLR2/TLR6 (Mus musculus) (UniProt Q9QUN7+Q9EPW9). As to the kind of experiment: Antagonist activity at TLR2/6 in mouse RAW264.7 cells assessed as reduction in FSL-1-induced TNFalpha secretion at 20 to 80 uM after 24 hrs by ELISA. A general note: In an ELISA, binding on a coated surface is turned into a signal by an enzyme label.
A further assay concerns the target Toll-like receptor 4 (Homo sapiens, UniProt O00206). As to the kind of experiment: Antagonist activity at TLR4 in human PBMC cells assessed as reduction in LPS-induced ERK phosphorylation at 80 uM after 15 to 30 mins by Western blot analysis.

Toll-like receptor 4, sequence (O00206 whole entry): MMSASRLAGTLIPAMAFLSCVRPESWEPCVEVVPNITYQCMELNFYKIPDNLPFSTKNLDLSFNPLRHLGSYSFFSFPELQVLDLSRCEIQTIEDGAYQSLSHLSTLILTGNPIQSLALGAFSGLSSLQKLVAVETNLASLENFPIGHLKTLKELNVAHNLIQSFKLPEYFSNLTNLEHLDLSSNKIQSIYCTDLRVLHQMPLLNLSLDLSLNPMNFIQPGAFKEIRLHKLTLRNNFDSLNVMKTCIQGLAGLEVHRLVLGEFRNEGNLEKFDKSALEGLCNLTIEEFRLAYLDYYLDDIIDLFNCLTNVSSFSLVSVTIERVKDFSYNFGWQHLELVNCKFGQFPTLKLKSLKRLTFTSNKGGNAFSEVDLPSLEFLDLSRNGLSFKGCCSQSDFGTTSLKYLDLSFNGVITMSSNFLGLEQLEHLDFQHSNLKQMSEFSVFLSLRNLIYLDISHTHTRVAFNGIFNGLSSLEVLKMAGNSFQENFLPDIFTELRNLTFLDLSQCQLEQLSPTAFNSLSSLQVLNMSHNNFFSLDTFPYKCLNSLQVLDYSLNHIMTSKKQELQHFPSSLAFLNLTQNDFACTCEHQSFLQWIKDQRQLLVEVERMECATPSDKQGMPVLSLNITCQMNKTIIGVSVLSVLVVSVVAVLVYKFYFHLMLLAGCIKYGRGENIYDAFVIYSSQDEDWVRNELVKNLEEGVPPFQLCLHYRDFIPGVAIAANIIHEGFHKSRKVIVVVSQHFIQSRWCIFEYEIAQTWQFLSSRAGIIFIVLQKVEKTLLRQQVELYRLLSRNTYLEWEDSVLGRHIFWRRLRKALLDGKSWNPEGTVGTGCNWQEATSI

Consider H-LGVFSSWWIKLV-OH, for which the result (in assay [1]; in assay [2]; at Toll-like receptor 4) was Active. For the same substance, on TLR2/TLR6 (Mus musculus), the result was inactive.
